Where a chain is given by its changes, count along the chain named.
Key:
[1] = tested on: human P2X4; settings: cited from earlier work
[2] = target: hP2X7 Y295F (Homo sapiens, UniProt Q99572, Y295F); experiment: Whole-cell patch clamp, hP2X7 mutant; assay type: cell-based
[3] = target: T1, mP2X7 (Mus musculus, UniProt Q9Z1M0); experiment: Whole-cell patch clamp, ATP-evoked current, transfected HEK293; assay type: cell-based
T1 sequence (Q9Z1M0 1-595): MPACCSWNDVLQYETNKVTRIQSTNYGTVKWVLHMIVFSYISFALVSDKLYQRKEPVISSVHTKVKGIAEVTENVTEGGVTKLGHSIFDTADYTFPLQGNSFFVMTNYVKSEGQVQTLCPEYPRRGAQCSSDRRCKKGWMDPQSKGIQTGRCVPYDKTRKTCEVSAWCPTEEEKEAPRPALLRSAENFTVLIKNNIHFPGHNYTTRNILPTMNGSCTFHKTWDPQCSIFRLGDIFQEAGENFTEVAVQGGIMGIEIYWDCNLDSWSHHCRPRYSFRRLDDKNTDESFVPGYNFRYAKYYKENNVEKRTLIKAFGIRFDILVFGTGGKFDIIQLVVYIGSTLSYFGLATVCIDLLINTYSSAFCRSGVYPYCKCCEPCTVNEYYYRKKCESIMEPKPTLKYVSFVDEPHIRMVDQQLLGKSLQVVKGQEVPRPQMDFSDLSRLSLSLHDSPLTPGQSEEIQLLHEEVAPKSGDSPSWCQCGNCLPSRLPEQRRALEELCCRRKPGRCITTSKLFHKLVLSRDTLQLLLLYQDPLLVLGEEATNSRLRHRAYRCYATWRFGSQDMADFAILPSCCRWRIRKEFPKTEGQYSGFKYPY

[4] = target: hP2X7 V312A (Homo sapiens, UniProt Q99572, V312A); experiment: Whole-cell patch clamp, hP2X7 mutant; assay type: cell-based
[5] = target: hP2X7 M140E (Homo sapiens, UniProt Q99572, M140E); experiment: Whole-cell patch clamp, hP2X7 mutant; assay type: cell-based; settings: h7M140E, 30 μM (Fig. S3b)
[6] = target: T2, rP2X7 (Rattus norvegicus, UniProt Q64663); experiment: Whole-cell patch clamp, ATP-evoked current, transfected HEK293; assay type: cell-based; settings: HEK293, read-out: inhibition rate
T2 sequence (Q64663 1-595): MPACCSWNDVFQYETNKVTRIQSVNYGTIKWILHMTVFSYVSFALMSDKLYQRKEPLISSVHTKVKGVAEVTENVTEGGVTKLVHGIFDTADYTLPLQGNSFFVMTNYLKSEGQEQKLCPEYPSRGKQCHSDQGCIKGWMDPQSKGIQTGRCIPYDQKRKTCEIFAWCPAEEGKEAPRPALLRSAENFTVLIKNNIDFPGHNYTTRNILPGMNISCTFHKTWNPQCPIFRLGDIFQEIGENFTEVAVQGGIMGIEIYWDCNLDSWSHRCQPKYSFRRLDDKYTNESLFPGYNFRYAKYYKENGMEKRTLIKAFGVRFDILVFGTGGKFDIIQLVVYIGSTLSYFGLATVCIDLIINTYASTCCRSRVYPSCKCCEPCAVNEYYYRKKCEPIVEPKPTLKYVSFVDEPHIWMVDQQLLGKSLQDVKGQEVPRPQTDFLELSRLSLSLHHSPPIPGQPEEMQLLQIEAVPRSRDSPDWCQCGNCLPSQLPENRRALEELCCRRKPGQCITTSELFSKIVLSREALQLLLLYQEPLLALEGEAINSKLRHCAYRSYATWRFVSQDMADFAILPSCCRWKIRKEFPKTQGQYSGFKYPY

[7] = target: hP2X7 I68F (Homo sapiens, UniProt Q99572, I68F); experiment: Whole-cell patch clamp, hP2X7 mutant; assay type: cell-based
[8] = target: T3, hP2X7 (Homo sapiens, UniProt Q99572); experiment: Whole-cell patch clamp, ATP-evoked current, transfected HEK293; assay type: cell-based
T3 sequence (Q99572 1-595): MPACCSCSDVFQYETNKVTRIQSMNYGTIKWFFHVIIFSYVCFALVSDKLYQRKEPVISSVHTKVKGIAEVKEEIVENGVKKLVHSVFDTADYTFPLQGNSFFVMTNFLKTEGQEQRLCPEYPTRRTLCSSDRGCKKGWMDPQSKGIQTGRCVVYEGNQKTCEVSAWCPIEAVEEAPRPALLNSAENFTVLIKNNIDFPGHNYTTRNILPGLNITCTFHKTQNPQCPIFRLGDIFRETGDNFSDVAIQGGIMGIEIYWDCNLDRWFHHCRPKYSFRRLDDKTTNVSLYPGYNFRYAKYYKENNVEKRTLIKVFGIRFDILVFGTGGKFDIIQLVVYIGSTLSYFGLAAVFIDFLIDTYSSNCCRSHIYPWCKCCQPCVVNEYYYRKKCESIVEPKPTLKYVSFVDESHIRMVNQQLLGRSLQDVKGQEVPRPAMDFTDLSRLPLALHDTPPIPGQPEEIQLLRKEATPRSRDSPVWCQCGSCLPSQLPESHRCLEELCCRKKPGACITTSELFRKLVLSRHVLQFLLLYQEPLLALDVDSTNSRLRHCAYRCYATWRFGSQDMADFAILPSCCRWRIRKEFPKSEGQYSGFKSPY

[9] = target: hP2X7 E305C (Homo sapiens, UniProt Q99572, E305C); experiment: Whole-cell patch clamp, hP2X7 mutant; assay type: cell-based; settings: h7E305C, 30 μM (Fig. S3b)
[10] = target: hP2X7 F88A (Homo sapiens, UniProt Q99572, F88A); experiment: Whole-cell patch clamp, hP2X7 mutant; assay type: cell-based; settings: h7F88A, 30 μM (Fig. S3b)
[11] = target: hP2X7 E305F (Homo sapiens, UniProt Q99572, E305F); experiment: Whole-cell patch clamp, hP2X7 mutant; assay type: cell-based
[12] = target: hP2X7 F103A (Homo sapiens, UniProt Q99572, F103A); experiment: Whole-cell patch clamp, hP2X7 mutant; assay type: cell-based; settings: h7F103A, 30 μM (Fig. S3b)
[13] = tested on: human P2X7; experiment: Literature IC50; settings: from Table S1 values
[14] = tested on: human P2X7; settings: cited from earlier work
[15] = target: T4, mP2X7 A312V (Mus musculus, UniProt Q9Z1M0, A312V); experiment: Whole-cell patch clamp, mP2X7 mutant; assay type: cell-based; settings: read-out: EC50 (apparent affinity for ATP); m7A312V
T4 sequence (Q9Z1M0 1-595 A312V): T1 sequence (Q9Z1M0 1-595) with A312V

[16] = tested on: human P2X3; settings: read-out: IC50 (half-maximal inhibitory concentration); hP2X3; cited from earlier work
[17] = HEK293, read-out: inhibition rate

hP2X7 Y295F, sequence (Q99572 whole entry Y295F): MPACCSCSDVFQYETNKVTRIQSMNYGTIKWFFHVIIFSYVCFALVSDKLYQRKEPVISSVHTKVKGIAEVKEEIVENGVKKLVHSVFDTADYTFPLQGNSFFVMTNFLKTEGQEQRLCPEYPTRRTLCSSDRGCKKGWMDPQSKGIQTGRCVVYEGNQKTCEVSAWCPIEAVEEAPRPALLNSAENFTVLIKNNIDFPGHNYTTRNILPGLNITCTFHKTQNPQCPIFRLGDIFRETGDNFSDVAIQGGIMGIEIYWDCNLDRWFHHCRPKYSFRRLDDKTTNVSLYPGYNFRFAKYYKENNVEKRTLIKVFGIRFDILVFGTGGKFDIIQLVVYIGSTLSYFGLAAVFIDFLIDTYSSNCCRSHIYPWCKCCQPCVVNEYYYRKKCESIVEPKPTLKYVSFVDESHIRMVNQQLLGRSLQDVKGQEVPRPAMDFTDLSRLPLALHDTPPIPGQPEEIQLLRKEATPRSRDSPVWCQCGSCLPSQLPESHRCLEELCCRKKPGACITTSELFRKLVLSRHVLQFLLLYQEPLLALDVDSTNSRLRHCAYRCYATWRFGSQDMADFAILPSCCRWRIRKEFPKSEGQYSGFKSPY
hP2X7 I68F, sequence (Q99572 whole entry I68F): as the sequence (Q99572 whole entry Y295F) above, with I68F, F295Y counted along it
hP2X7 V312A, sequence (Q99572 whole entry V312A): as the sequence (Q99572 whole entry Y295F) above, with F295Y, V312A counted along it
hP2X7 E305F, sequence (Q99572 whole entry E305F): as the sequence (Q99572 whole entry Y295F) above, with F295Y, E305F counted along it
hP2X7 E305C, sequence (Q99572 whole entry E305C): as the sequence (Q99572 whole entry Y295F) above, with F295Y, E305C counted along it
hP2X7 F103A, sequence (Q99572 whole entry F103A): as the sequence (Q99572 whole entry Y295F) above, with F103A, F295Y counted along it
hP2X7 M140E, sequence (Q99572 whole entry M140E): as the sequence (Q99572 whole entry Y295F) above, with M140E, F295Y counted along it
hP2X7 F88A, sequence (Q99572 whole entry F88A): as the sequence (Q99572 whole entry Y295F) above, with F88A, F295Y counted along it

## CC(C)c1cc(Br)c(NC(=O)Nc2cccnc2)c(Br)c1 [BX430]
[1]; P2X4
  IC50: 0.54 µM
[1]
  IC50 for hP2X4, fold lower than for mP2X4 and rP2X4: more than 20 fold
  fold difference between hP2X4 and mP2X4: > 20 fold

## COc1ccc2cc3[n+](cc2c1OC)CCc1cc2c(cc1-3)OCO2 [berberine]
[2]
  IC50: 46.6 ± 7.8 µM
[2]; h7Y295F, 30 μM (Fig. S3b)
  inhibitory effect vs h7WT: notably attenuated
[3]; [17]
  inhibition at 300 µM: 8.02 ± 2.7%
[4]
  IC50: > 300 µM
[4]; h7V312A, 30 μM (Fig. S3b)
  inhibitory effect vs h7WT: notably attenuated
[5]
  inhibitory effect vs h7WT: notably attenuated
[6]
  inhibition at 300 µM: 19.2 ± 4.3%
[7]
  IC50: 39.9 ± 5.8 µM
[7]; h7I68F, 30 μM (Fig. S3b)
  inhibitory effect vs h7WT: notably attenuated
[8]
  IC50: 12.7 ± 0.9 µM
[9]
  inhibitory effect vs h7WT: notably attenuated
[10]
  inhibitory effect vs h7WT: notably attenuated
[11]
  IC50: 87.7 ± 4.3 µM
[11]; h7E305F, 30 μM (Fig. S3b)
  inhibitory effect vs h7WT: notably attenuated
[12]
  inhibitory effect vs h7WT: notably attenuated

## O=C(CC12CC3CC(CC(C3)C1)C2)Nc1cccc2nc(NCCNCCO)ccc12 [AZ10606120]
[13]
  apparent affinity (IC50) for hP2X7, fold higher than for mP2X7: 500 fold
  apparent affinity (IC50) for hP2X7, fold higher than for rP2X7: 1587 fold

## COc1ccc(CC(=O)NC(NC(=NC#N)Nc2cccc3ncccc23)C(C)(C)C)cc1OC (centres unmarked) [A740003, N-(1-{[(cyanoimino)(5-quinolinylamino)methyl]amino}-2,2-dimethylpropyl)-2-(3,4-dimethoxyphenyl)acetamide]
[14]; P2X7
  IC50: 0.0437 µM
[14]
  fold difference in IC50 between hP2X7 and mP2X7: 37 fold

## Nc1ncnc2c1ncn2[C@@H]1O[C@H](COP(=O)(O)OP(=O)(O)OP(=O)(O)O)[C@@H](O)[C@H]1O [ATP, reference compound]
[3]; read-out: EC50 (apparent affinity for ATP), m7WT
  EC50: 782 ± 71 µM
[15]
  EC50: 1420 ± 170 µM

## CNC(=O)c1cc(F)c(-c2nc3cc(C)ccn3c2C[C@H]2CN(C(=O)OC)CCO2)c(F)c1 [BLU-5937]
[16]
  IC50: 0.025 µM

## C=CC[C@H]1c2ccc(OC)c(OC)c2CN2CCc3cc4c(cc3[C@@H]12)OCO4 [PSFL1190, (13S,13aR)-13-allyl-9,10-dimethoxy-5,8,13,13a-tetrahydro-6H-1,3dioxolo[4,5-g] isoquinolino[3,2-a]isoquinoline]
[3]; [17]
  inhibition at 30 µM: 11.8 ± 6.1%
[6]
  inhibition at 30 µM: 12.1 ± 2.4%
[8]
  IC50: 12.6 ± 2.9 µM
  fold difference in affinity for hP2X7 between PSFL1191 and PSFL1190: more than 50 fold

— article PMC12673082 (Nature Communications, 2025)
